# Measured values published in article PMC6683251, “Flavanol Bioavailability in Two Cocoa Products with Different Phenolic Content. A Comparative Study in Humans” (Nutrients, 2019).
# Read-outs that look alike come from different tables or passages of the source.
# How the values were obtained:
# [1] = Plasma nutrikinetics of flavanol metabolites after a single serving of soluble cocoa product (HPLC-ESI-QToF-MS); format: in vivo, human; details: both sexes, oral, mean ± SD, n = 13; for AUC: human plasma 0-8 h, read-out: AUC; for Tmax / Cmax: human plasma; for Tmax: read-out: Tmax; for Cmax: read-out: Cmax
# Protocol: The study was carried out in thirteen healthy subjects (3 men and 10 women); the mens’ average age and body mass index were 26.67 ± 3.21 year and 22.47 ± 2.97 kg/m^2, respectively, and womens’ were 32.60 ± 9.85 year and 23.36 ± 3.73 kg/m^2, respectively. They were non-smoker, non-vegetarian, non-pregnant women, who were not taking any medication or nutritional supplements, and were not suffering from any chronic pathology or gastrointestinal disorder. The sample size was estimated attending to similar previous bioavailability studies. The volunteers gave their informed consent prior to participation.
# The present randomized, single-blind study was carried out at the Human Nutrition Unit (HNU) of the Institute of Food Science, Technology and Nutrition (ICTAN). Volunteers attended the HNU on two days, separated by two weeks. Three days previous to each visit, participants were instructed not to consume cocoa products (chocolate, soluble cocoa, etc.), juices, tea, wine, grape must, oranges, tangerines, apples, grapes, strawberries or other berries, beets, onions, soybeans and soy derivatives. In addition, volunteers were asked to complete a 24 h food intake recall the day before they attended the HNU in order to monitor any possible food restriction incompliance.
# On each intervention day, volunteers arrived at the HNU after an overnight fast. Prior to the intake of the soluble cocoa product, a nurse inserted a cannula in the cubital vein of the non-prevailing arm of the volunteers and blood samples were collected into EDTA-coated tubes at baseline (t = 0) and 0.5, 1, 2, 3, 4, 6, and 8 h after consuming the corresponding cocoa product. The soluble cocoa products, either 15 g of CC or 25 g CC-PP, were dissolved in 200 mL of semi-skimmed milk following manufacturer’s preparation instructions. Plasma was separated by centrifugation (10 min, 3000 rpm, 4 °C) and stored at −80 °C until further analysis. Urine samples were collected at different time intervals (t = −2–0, 0–4, 4–8, 8–12, and 12–24 h) in urine collection flasks that contained 0.5 g of ascorbic acid as preservative and were aliquoted and frozen at −20 °C until analysis. A polyphenol-free breakfast, lunch and afternoon snack were provided 2 h, 4 h, and 8 h after consumption of cocoa products, and water and isotonic beverages were available ad libitum.
# A liquid–liquid extraction and protein precipitation with acetonitrile was used to isolate metabolites from plasma. A 1 mL defrosted plasma sample was mixed with 50 μL of ascorbic acid (0.2 g/mL). After vortexing the aqueous mixture, it was added drop wise to 750 μL of cold acetonitrile and vortexed for 2 min before centrifuging at 12,000 rpm for 10 min at 4 °C. The supernatant was separated, and the pellet was re-extracted twice more following the same procedure. Supernatants were combined and reduced to dryness under a stream of nitrogen at 30 °C. The dried samples were resuspended in 150 μL of aqueous formic acid (0.1%) containing 10% acetonitrile acidified with 0.1% formic acid and centrifuged at 4 °C for 20 min at 14,000 rpm. The final supernatant was collected, filtered (0.45 μm pore-size, cellulose-acetate membrane filters, Albet, Dassel (Germany)) and 30 μL were analyzed by high-performance liquid chromatography coupled to electrospray ionisation and quadrupole time-of-flight mass spectrometry (HPLC-ESI-QToF-MS).
# Analyses were performed on an Agilent 1200 series LC system coupled to an Agilent 6530A Accurate-Mass Quadrupole Time-Of-Flight (Q-ToF) with ESI-Jet Stream Technology (Agilent Technologies). Compounds were separated on a reverse-phase Ascentis Express C18 (15 cm × 3 mm, […]) column (Sigma-Aldrich Química, Madrid) preceded by a Supelco 55215-U guard column at 30 °C. […]
# [2] = Urinary excretion of flavanol metabolites (0-24 h) after a single serving of soluble cocoa product (HPLC-ESI-QToF-MS); format: in vivo, human; details: mean ± SD, n = 13; for Excreted in urine, Total: 24 h urine; for Excreted in urine, Basal: basal urine (−2–0 h, before intake)
# Protocol: They were non-smoker, non-vegetarian, non-pregnant women, who were not taking any medication or nutritional supplements, and were not suffering from any chronic pathology or gastrointestinal disorder. The sample size was estimated attending to similar previous bioavailability studies. The volunteers gave their informed consent prior to participation.
# The present randomized, single-blind study was carried out at the Human Nutrition Unit (HNU) of the Institute of Food Science, Technology and Nutrition (ICTAN). Volunteers attended the HNU on two days, separated by two weeks. Three days previous to each visit, participants were instructed not to consume cocoa products (chocolate, soluble cocoa, etc.), juices, tea, wine, grape must, oranges, tangerines, apples, grapes, strawberries or other berries, beets, onions, soybeans and soy derivatives.
# On each intervention day, volunteers arrived at the HNU after an overnight fast. […] The soluble cocoa products, either 15 g of CC or 25 g CC-PP, were dissolved in 200 mL of semi-skimmed milk following manufacturer’s preparation instructions. Plasma was separated by centrifugation (10 min, 3000 rpm, 4 °C) and stored at −80 °C until further analysis. […] A polyphenol-free breakfast, lunch and afternoon snack were provided 2 h, 4 h, and 8 h after consumption of cocoa products, and water and isotonic beverages were available ad libitum.
# Urine samples were diluted with an equivalent volume of Milli-Q water (50%) and centrifuged at 14000 rpm (10 min, 4 °C). Supernatants were filtered (0.45 μm pore-size cellulose-acetate membrane filters) and a 5 µL aliquot was directly injected into the LC-ESI-QToF-MS equipment.
# The test samples, either 30 μL of the plasma extract or 5 μL of diluted urine, were injected and separated using a mobile phase consisting of Milli-Q water (phase A) and acetonitrile (phase B), both containing 0.1% formic acid, at a flow rate of 0.3 mL/min. The mobile phase was initially programmed with 90% of solvent A and 10% of B. The elution program increased to 30% of solvent B in 10 min. Then, the initial conditions (10% solvent B) were recovered in 5 min and maintained for 5 min.
# Due to the lack of standards for certain phase II metabolites, they were tentatively quantified using the calibration curves of their corresponding phenolic precursors. […] The rest of microbial metabolites identified, derivatives of hydroxyphenylpropionic, hydroxyphenylacetic, hydroxybenzoic and hippuric acids, were quantified using their respective commercially available standards. Urine concentration of the excreted metabolites was normalized by the volume excreted in each studied interval. […] Calibration curves were freshly prepared in a pool of both plasma and urine due to matrix effects.
# Statistical analyses were carried out using the program SPSS (version 23.0, SPSS, Inc., IBM Company, New York, NY, USA). Significant differences between metabolites excreted in urine after consumption of CC and CC-PP cocoa products were evaluated based on non-parametric Wilcoxon test (p < 0.05). To determine the absorption and elimination of epicatechin metabolites after consumption of the soluble cocoa products, metabolite nutrikinetics were studied using the pharmacokinetic functions of Microsoft Excel, calculating the maximum concentration (Cmax), area under curve (AUC) and time to reach maximum concentration (Tmax). Data are expressed as mean ± standard deviation.
# [3] = 19.8 mg, after CC (19.80 mg flavanols)
# [4] = after CC-PP (68.25 mg flavanols)
# [5] = after CC (15 g in 200 mL semi-skimmed milk, 19.80 mg flavanols)
# [6] = after CC-PP (25 g in 200 mL semi-skimmed milk, 68.25 mg flavanols)
SMILES,"AUC [1, 3]","Tmax [1, 3]","AUC [1, 4]","Cmax [1, 5]","Tmax [1, 4]","Cmax [1, 6]","Excreted in urine, Total ([2]; after CC (19.80 mg flavanols))","Excreted in urine, 0–4 h ([2]; after CC (19.80 mg flavanols))","Excreted in urine, 4–8 h ([2]; after CC (19.80 mg flavanols))","Excreted in urine, 8–12 h ([2]; after CC (19.80 mg flavanols))","Excreted in urine, 12–24 h ([2]; after CC (19.80 mg flavanols))","Excreted in urine, Total [2, 4]","Excreted in urine, 0–4 h [2, 4]","Excreted in urine, 4–8 h [2, 4]","Excreted in urine, 8–12 h [2, 4]","Excreted in urine, 12–24 h [2, 4]","Excreted in urine, Basal ([2]; CC intervention)","Excreted in urine, Basal ([2]; CC-PP intervention)"
"COc1cc([C@H]2Oc3cc(O)cc(OS(=O)(=O)O)c3C[C@H]2O)ccc1O (single isomer, unassigned) [Epicatechin-methoxy-sulfate (isomer 1), Epicatechin-methoxy-sulfate]",0.122 ± 0.025 µM·h,1.3 ± 0.6 h,0.173 ± 0.107 µM·h,31 ± 3 nM,1.1 ± 0.6 h,41 ± 2 nM,4.428 ± 0.800 µmol,2.717 ± 0.457 µmol,1.300 ± 0.197 µmol,0.154 ± 0.031 µmol,0.257 ± 0.114 µmol,12.481 ± 2.243 µmol,8.642 ± 1.434 µmol,3.277 ± 0.644 µmol,0.330 ± 0.095 µmol,0.232 ± 0.070 µmol,,
"COc1cc([C@H]2Oc3cc(OS(=O)(=O)O)cc(O)c3C[C@H]2O)ccc1O (single isomer, unassigned) [Epicatechin-methoxy-sulfate (isomer 2), Epicatechin-methoxy-sulfate]",,,0.145 ± 0.107 µM·h,,1.3 ± 0.5 h,41 ± 4 nM,0.428 ± 0.062 µmol,0.181 ± 0.032 µmol,0.247 ± 0.030 µmol,<L.Q.,<L.Q.,1.200 ± 0.293 µmol,0.566 ± 0.152 µmol,0.557 ± 0.120 µmol,0.077 ± 0.021 µmol,<L.Q.,,
"O=C1CCC(Cc2ccc(O)c(O)c2)O1 (stereo not shown) [DHPVL, 5-(3′,4′-Dihydroxyphenyl)-γ-valerolactone]",0.124 ± 0.073 µM·h,6 ± 1.6 h,0.192 ± 0.029 µM·h,35 ± 8 nM,5.5 ± 1.4 h,37 ± 7 nM,0.146 ± 0.032 µmol,<L.Q.,0.146 ± 0.032 µmol,<L.Q.,<L.Q.,1.084 ± 0.199 µmol,<L.Q.,0.628 ± 0.087 µmol,0.174 ± 0.029 µmol,0.282 ± 0.082 µmol,<L.Q.,<L.Q.
O=C(O)C1OC(Oc2cc(C3Oc4cc(O)cc(O)c4CC3O)ccc2O)C(O)C(O)C1O (stereo not shown) [Epicatechin-3′-glucuronide],0.072 ± 0.028 µM·h,1.5 ± 0.5 h,0.11 ± 0.066 µM·h,25 ± 1 nM,1.4 ± 0.8 h,37 ± 1 nM,0.622 ± 0.130 µmol,0.355 ± 0.071 µmol,0.267 ± 0.059 µmol,<L.Q.,<L.Q.,1.653 ± 0.462 µmol,0.958 ± 0.272 µmol,0.695 ± 0.190 µmol,<L.Q.,<L.Q.,,
O=S(=O)(O)Oc1cc([C@H]2Oc3cc(O)cc(O)c3C[C@H]2O)ccc1O [Epicatechin-3′-sulfate],0.101 ± 0.023 µM·h,1 ± 0.1 h,0.109 ± 0.076 µM·h,26 ± 3 nM,1.2 ± 0.5 h,42 ± 4 nM,2.417 ± 0.439 µmol,1.323 ± 0.236 µmol,1.018 ± 0.178 µmol,0.076 ± 0.025 µmol,<L.Q.,7.357 ± 1.523 µmol,3.627 ± 0.797 µmol,3.572 ± 0.662 µmol,0.158 ± 0.038 µmol,<L.Q.,,
